The text below walks through data of patent US7358250B2, “Pyrrolo[2,3-d]pyrimidines that modulate ACK1 activity” (Amgen Inc., priority 2004, dated 2008).

For one assay, the target named is T1, ACK1 (Homo sapiens, UniProt Q07912).
T1 construct: a fusion of an N-terminal (His)6 Tag with amino acids 117 to 489 of ACK1; (His)6 (N); made in house; host or cells: baculovirus infected Hi-5 insect cells
Kind of assay: ACK1 Enzymatic Assay. As to conditions: 5 μM ATP, ELISA phosphotyrosine readout. The assay is classed as biochemical. Here is the method: IC50 values of inventive compounds may be assessed as follows. […] The substrate of for the reaction is ACK1 itself (autophosphorylation) and poly-Glutamic acid-Tyrosine (PGT (4:1), Sigma catalog #PO275). The PGT is coated to Nunc 96 well plates at 80 μg/mL overnight at 4° C. […] Test compounds are added in 10 μL DMSO, and the reaction is started by addition of 10 μL kinase in assay buffer. The reaction proceeds 2 h at room temperature. Next the plates are washed four times, and the level of tyrosine phosphorylation in a given well is quantified by standard ELISA assay utilizing a phosphotyrosine antibody (PY20, Pierce).

A further assay has as its system C8 cells. Kind of assay: ACK1 Cell Based Assay, test (C8) cell line. The conditions noted are these: 0.125% FCS, 20 to 24 h, cell viability (Cytotox One kit). Here is the method: The ACK1 cell based assay is designed to find inhibitors of ACK1 kinase activity which would be prime candidates for the development of anticancer drugs. […] This dependency was confirmed utilizing ACK1 specific siRNAs.
For this assay, test (C8) and control (HeLa) cell lines are seeded in 96 well tissue culture plates (BD Falcon) at a density of 2 to 4×10^4 in DMEM/F12 (C8) or DMEM (HeLa) with 0.125% FCS in the presence of ACK1 inhibitors (final DMSO concentration is 0.5%, all tissue culture media are from Cellgro). After 20 to 24 h incubation at 37° C. and 5% CO2, cell viability is determined using the Cytotox One kit (Promega) according to the manufacturer's instructions.

The next assay deals with T2, LCK (Homo sapiens, UniProt P06239).
T2 construct: 15 μL of LCK KD GST (225-509) for a final volume of 40 μL; GST
T2 sequence (P06239 225-509): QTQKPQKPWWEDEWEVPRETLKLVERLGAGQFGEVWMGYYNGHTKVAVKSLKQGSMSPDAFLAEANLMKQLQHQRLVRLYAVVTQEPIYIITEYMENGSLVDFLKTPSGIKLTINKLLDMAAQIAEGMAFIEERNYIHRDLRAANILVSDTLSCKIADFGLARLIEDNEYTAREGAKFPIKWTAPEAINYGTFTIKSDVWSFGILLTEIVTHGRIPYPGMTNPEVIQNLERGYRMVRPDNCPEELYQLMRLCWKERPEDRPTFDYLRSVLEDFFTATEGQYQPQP
Kind of assay: LCK-Homogeneous Time Resolved Fluorescent (HTRF) Kinase Assay. It is filed as biochemical. As to conditions: LCK KD GST (225-509). Here is the method:
The LCK HTRF assay begins with LCK in the presence of ATP phosphorylating the biotinylated peptide Gastrin. The reaction incubates for 90 min. To quench the assay detection reagents are added which both stop the reaction by diluting out the enzyme and chelating the metals due to the presence of EDTA. Once the detection reagents are added the assay incubates for 30 min to allow for equilibration of the detection reagents.
The final concentration of gastrin is 1.2 μM. The final concentration of ATP is 0.5 μM (Km app=[…]) and the final concentration of LCK is […]. Buffer conditions are as follows: 50 mM HEPES pH 7.5, 50 mM NaCl, 20 mM MgCl, 5 mM MnCl, 2 mM DTT, 0.05% BSA.
The assay is quenched and stopped with 160 μL of detection reagent. Detection reagents are as follows: Buffer made of 50 mM Tris, pH 7.5, 100 mM NaCl, 3 mM EDTA, 0.05% BSA, 0.1% Tween20. Added to this buffer prior to reading is Steptavidin allophycocyanin (SA-APC) at a final conc in the assay of 0.0004 mg/mL, and europilated anti-phosphotyrosine Ab (Eu-anti-PY) at a final conc of 0.025 nM.
The assay plate is read in either a Discovery or a RubyStar. The eu-anti-PY is excited at 320 nm and emits at 615 nm to excite the SA-APC which in turn emits at 655 nm. The ratio of SA-APC at 655 nm (excited due to close proximity to the Eu-anti-PY because of phosphorylation of the peptide) to free Eu-anti-PY at 615 nm will give substrate phosphorylation.

T1 sequence (Q07912 117-489): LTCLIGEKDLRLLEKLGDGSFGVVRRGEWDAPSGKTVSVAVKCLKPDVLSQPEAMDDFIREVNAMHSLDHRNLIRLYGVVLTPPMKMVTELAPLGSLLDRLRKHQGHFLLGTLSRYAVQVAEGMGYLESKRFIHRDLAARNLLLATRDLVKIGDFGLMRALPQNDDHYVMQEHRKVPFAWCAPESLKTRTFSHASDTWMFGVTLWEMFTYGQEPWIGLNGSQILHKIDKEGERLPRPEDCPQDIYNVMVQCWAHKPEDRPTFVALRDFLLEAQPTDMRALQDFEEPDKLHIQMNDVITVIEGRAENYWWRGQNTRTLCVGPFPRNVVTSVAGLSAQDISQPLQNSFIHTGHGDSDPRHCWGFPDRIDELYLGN

For the molecule `C=CCNS(=O)(=O)c1ccc(-c2[nH]c3ncnc(NCC4CCCO4)c3c2-c2ccccc2)cc1` (stereo not drawn) [Example 12, N-Allyl-4-{5-phenyl-4-[(tetrahydro-furan-2-ylmethyl)-amino]-7H-pyrrolo[2,3-d]pyrimidin-6-yl}-benzenesulfonamide], the Ki on ACK1 and at LCK was less than 0.01 µM each time. This molecule returned an IC50 in the assay with C8 cells greater than 0.1 µM.
For `CC(C)(C)OC(=O)CNS(=O)(=O)c1ccc(-c2[nH]c3ncnc(NCC4CCCO4)c3c2-c2ccccc2)cc1` (stereo not drawn) [Example 13, (4-{5-Phenyl-4-[(tetrahydrofuran-2-ylmethyl)-amino]-7H-pyrrolo[2,3-d]pyrimidin-6-yl}-benzenesulfonylamino)-acetic acid tert-butyl ester], the Ki at ACK1 and on LCK was 0.01 to 0.1 µM each time. The IC50 in the assay on C8 cells is greater than 0.1 µM.
For the molecule `CCOC(=O)CN(CC(=O)OCC)S(=O)(=O)c1ccc(-c2[nH]c3ncnc(NCC4CCCO4)c3c2-c2ccccc2)cc1` (stereo not drawn) [Example 14, [Ethoxycarbonylmethyl-(4-{5-phenyl-4-[(tetrahydrofuran-2-ylmethyl)-amino]-7H-pyrrolo[2,3-d]pyrimidin-6-yl}-benzenesulfonyl)-amino]-acetic acid ethyl ester], the Ki was less than 0.01 µM on ACK1 and 0.01 to 0.1 µM on LCK. In the assay with C8 cells, this molecule showed an IC50 greater than 0.1 µM.
In the case of `NS(=O)(=O)c1ccc(-c2[nH]c3ncnc(NC[C@@H]4CCCO4)c3c2-c2ccccc2)cc1` [Example 15, 4-{5-Phenyl-4-[(tetrahydrofuran-2-ylmethyl)-amino]-7H-pyrrolo[2,3-d]pyrimidin-6-yl}-benzenesulfonamide], the values for the Ki on ACK1 and on LCK were less than 0.01 µM and 0.01 to 0.1 µM, respectively. In the assay with C8 cells, this molecule displayed a half-inhibitory concentration (IC50) greater than 0.1 µM.
On to `O=S(=O)(NCC(O)CO)c1ccc(-c2[nH]c3ncnc(NC[C@@H]4CCCO4)c3c2-c2ccccc2)cc1` (stereo partly drawn) [Example 16, N-(2,3-Dihydroxy-propyl)-4-{5-phenyl-4-[(tetrahydrofuran-2-ylmethyl)-amino]-7H-pyrrolo[2,3-d]pyrimidin-6-yl}-benzenesulfonamide], for which the Ki on ACK1 and at LCK was less than 0.01 µM in each case. In addition, in the assay with C8 cells, the IC50 is greater than 0.1 µM.
Regarding `O=C(O)CNS(=O)(=O)c1ccc(-c2[nH]c3ncnc(NC[C@@H]4CCCO4)c3c2-c2ccccc2)cc1` [Example 17], the figures for the Ki at ACK1 and at LCK were less than 0.01 µM and 0.01 to 0.1 µM, respectively. In addition, the IC50 with C8 cells is greater than 0.1 µM.
Take `O=S(=O)(NCCO)c1ccc(-c2[nH]c3ncnc(NC[C@@H]4CCCO4)c3c2-c2ccccc2)cc1` [Example 18, N-(2-Hydroxy-ethyl)-4-{5-phenyl-4-[(tetrahydro-furan-2-ylmethyl)-amino]-7H-pyrrolo[2,3-d]pyrimidin-6-yl}-benzenesulfonamide]: the Ki at ACK1 and on LCK was less than 0.01 µM throughout. Moreover, the IC50 with C8 cells was greater than 0.1 µM.
Take `O=S(=O)(c1ccc(-c2[nH]c3ncnc(NC[C@@H]4CCCO4)c3c2-c2ccccc2)cc1)N(CCO)CCO` [Example 19, N,N-Bis-(2-hydroxyethyl)-4-{5-phenyl-4-[(tetrahydro-furan-2-ylmethyl)-amino]-7H-pyrrolo[2,3-d]pyrimidin-6-yl}-benzenesulfonamide]: the Ki on ACK1 and on LCK was less than 0.01 µM each time. The IC50 with C8 cells is greater than 0.1 µM.
Consider `c1ccc(-c2c(-c3ccc(OCCN4CCOCC4)cc3)[nH]c3ncnc(NCC4CCCO4)c23)cc1` (stereo not drawn) [Example 21, {6-[4-(2-Morpholin-4-yl-ethoxy)-phenyl]-5-phenyl-7H-pyrrolo[2,3-d]pyrimidin-4-yl}-(tetrahydro-furan-2-ylmethyl)-amine], for which the Ki on ACK1 and on LCK was less than 0.01 µM each time. This molecule had an IC50 in the assay on C8 cells of 0.01 to 0.1 µM.
Regarding `c1ccc(-c2c(-c3ccc(OCCN4CCCC4)cc3)[nH]c3ncnc(NCC4CCCO4)c23)cc1` (stereo not drawn) [Example 22, {5-Phenyl-6-[4-(2-pyrrolidin-1-yl-ethoxy)-phenyl]-7H-pyrrolo[2,3-d]pyrimidin-4-yl}-(tetrahydrofuran-2-ylmethyl)-amine], the inhibitory constant (Ki) at ACK1 and on LCK was less than 0.01 µM throughout. The molecule further came in with an IC50 with C8 cells of 0.01 to 0.1 µM.
In the case of `O=C1CCCN1CCOc1ccc(-c2[nH]c3ncnc(NCC4CCCO4)c3c2-c2ccccc2)cc1` (stereo not drawn) [Example 23, 1-[2-(4-{5-Phenyl-4-[(tetrahydrofuran-2-ylmethyl)-amino]-7H-pyrrolo[2,3-d]pyrimidin-6-yl}-phenoxy)-ethyl]-pyrrolidin-2-one], the Ki at ACK1 and on LCK was less than 0.01 µM in each case. The molecule further had an IC50 with C8 cells of 0.01 to 0.1 µM.
`CN1CCCC1CCOc1ccc(-c2[nH]c3ncnc(NCC4CCCO4)c3c2-c2ccccc2)cc1` (stereo not drawn) [Example 24, (6-{4-[2-(1-Methyl-pyrrolidin-2-yl)-ethoxy]-phenyl}-5-phenyl-7H-pyrrolo[2,3-d]pyrimidin-4-yl)-(tetrahydrofuran-2-ylmethyl)-amine]: the inhibition constant Ki at ACK1 and at LCK was 0.01 to 0.1 µM in each case. In addition, in the assay on C8 cells, the IC50 was greater than 0.1 µM.
`N#CCOc1ccc(-c2[nH]c3ncnc(NC[C@@H]4CCCO4)c3c2-c2ccccc2)cc1` [Example 25, (4-{5-Phenyl-4-[(tetrahydrofuran-2-ylmethyl)-amino]-7H-pyrrolo[2,3-d]pyrimidin-6-yl}-phenoxy)-acetonitrile]: the Ki on ACK1 is less than 0.01 µM; at LCK, 0.01 to 0.1 µM. The IC50 with C8 cells lay in the range of 0.01 to 0.1 µM.
`CNC(=O)c1ccc(-c2[nH]c3ncnc(NC[C@@H]4CCCO4)c3c2-c2ccccc2)cc1` [Example 26, N-Methyl-4-{5-phenyl-4-[(tetrahydrofuran-2-ylmethyl)-amino]-7H-pyrrolo[2,3-d]pyrimidin-6-yl}-benzamide]: the Ki at ACK1 and at LCK was less than 0.01 µM each time. The molecule further registered an IC50 in the assay on C8 cells of 0.01 to 0.1 µM.
For `CN(C)C(=O)c1ccc(-c2[nH]c3ncnc(NCC4CCCO4)c3c2-c2ccccc2)cc1` (stereo not drawn) [Example 27, N,N-Dimethyl-4-{5-phenyl-4-[(tetrahydrofuran-2-ylmethyl)-amino]-7H-pyrrolo[2,3-d]pyrimidin-6-yl}-benzamide], the Ki at ACK1 and on LCK was less than 0.01 µM each time. In addition, the IC50 with C8 cells fell in the range of 0.01 to 0.1 µM.
`O=C(c1ccc(-c2[nH]c3ncnc(NCC4CCCO4)c3c2-c2ccccc2)cc1)N1CCOCC1` (stereo not drawn) [Example 28, Morpholin-4-yl-(4-{5-phenyl-4-[(tetrahydrofuran-2-ylmethyl)-amino]-7H-pyrrolo[2,3-d]pyrimidin-6-yl}-phenyl)-methanone]: the Ki at ACK1 was less than 0.01 µM; at LCK it was greater than 0.1 µM. Also, the IC50 in the assay with C8 cells is 0.01 to 0.1 µM.
Consider `O=C(NC1CC1)c1ccc(-c2[nH]c3ncnc(NCC4CCCO4)c3c2-c2ccccc2)cc1` (stereo not drawn) [Example 29, N-Cyclopropyl-4-{5-phenyl-4-[(tetrahydrofuran-2-ylmethyl)-amino]-7H-pyrrolo[2,3-d]pyrimidin-6-yl}-benzamide], for which the Ki on ACK1 and at LCK was less than 0.01 µM each time. In the assay with C8 cells, this molecule showed an IC50 of 0.01 to 0.1 µM.
Turning to `COCCNC(=O)c1ccc(-c2[nH]c3ncnc(NCC4CCCO4)c3c2-c2ccccc2)cc1` (stereo not drawn) [Example 30, N-(2-Methoxyethyl)-4-{5-phenyl-4-[(tetrahydrofuran-2-ylmethyl)-amino]-7H-pyrrolo[2,3-d]pyrimidin-6-yl}-benzamide], the Ki at ACK1 and on LCK was less than 0.01 µM throughout. In addition, the IC50 in the assay on C8 cells lay in the range of 0.01 to 0.1 µM.
